Among the data in ChEMBL document CHEMBL1132795, “Stereoselective binding of an enantiomeric pair of stromelysin-1 inhibitors caused by conformational entropy factors” (Bioorg Med Chem Lett, 2000) are Kd values, retold here.

The nature of experiment [1]: Binding affinity of compound to the stromelysin-1 catalytic domain at pH 6.7, 22 degree C.
Experiment [2] can be described thus: Binding affinity of compound to the stromelysin-1 catalytic domain at pH 6.0, 22 degree C.

Broadly, the Kd is the free concentration of one partner at which half of the binding sites on the other are occupied at equilibrium, for simple one-to-one binding. Compound `CC(C)[C@@H](NS(=O)(=O)c1ccc(-c2ccc(Br)cc2)cc1)C(=O)O` came in with a Kd in experiment [1] of 679 nM.
On to `CC(C)[C@H](NS(=O)(=O)c1ccc(-c2ccc(Br)cc2)cc1)C(=O)O`, for which the Kd was determined as 76.6 nM in experiment [1] and 6.7 nM in experiment [2].
